Laboratory results: ChEMBL document CHEMBL1201862, “PubChem BioAssay data set” (2004)
Active and inactive are the calls of the source.

Key:
[1] = target: T1, Methionyl-tRNA synthetase, putative (Trypanosoma brucei brucei, UniProt Q38C91); format: functional, Trypanosoma brucei brucei strain 927/4 GUTat10.1
T1 sequence (Q38C91 whole entry): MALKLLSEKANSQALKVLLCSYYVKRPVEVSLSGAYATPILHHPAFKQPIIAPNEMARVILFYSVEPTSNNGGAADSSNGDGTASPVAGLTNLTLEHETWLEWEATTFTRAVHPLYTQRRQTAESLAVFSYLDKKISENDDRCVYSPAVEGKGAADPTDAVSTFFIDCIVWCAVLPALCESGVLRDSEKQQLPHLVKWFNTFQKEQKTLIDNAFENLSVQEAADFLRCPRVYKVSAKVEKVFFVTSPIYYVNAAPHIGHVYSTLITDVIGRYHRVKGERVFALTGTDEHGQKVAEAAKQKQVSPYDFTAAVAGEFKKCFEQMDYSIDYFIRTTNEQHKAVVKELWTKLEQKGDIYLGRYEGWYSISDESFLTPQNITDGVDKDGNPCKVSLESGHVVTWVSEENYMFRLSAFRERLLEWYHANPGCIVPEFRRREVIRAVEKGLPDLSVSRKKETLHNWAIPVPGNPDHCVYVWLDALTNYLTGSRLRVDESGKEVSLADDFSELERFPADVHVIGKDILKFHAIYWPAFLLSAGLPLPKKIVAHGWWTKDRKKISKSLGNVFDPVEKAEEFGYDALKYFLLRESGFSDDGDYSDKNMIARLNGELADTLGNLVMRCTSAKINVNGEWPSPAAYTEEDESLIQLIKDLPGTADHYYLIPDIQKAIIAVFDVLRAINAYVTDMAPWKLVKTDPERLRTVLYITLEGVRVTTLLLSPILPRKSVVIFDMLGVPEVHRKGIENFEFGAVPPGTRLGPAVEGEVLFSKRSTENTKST

[2] = Counterscreen for inhibitors of Trypanosoma brucei methionyl tRNA synthetase (MetRS): Luminescence-based cell-based high throughput dose response assay to identify compounds that are cytotoxic to Jurkat human T lymphocyte cells.; format: functional
[3] = cells; format: functional
[4] = target: T1, Methionyl-tRNA synthetase, putative; format: functional, Trypanosoma brucei brucei strain 927/4 GUTat10.1; remark: listed apart in the source
[5] = target: T2, Ubiquitin-conjugating enzyme E2 N (Homo sapiens, UniProt P61088); format: functional;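 note: Dose-response confirmation in a TR-FRET assay detecting UBC13-driven polyubiquitin chain formation, inhibition measured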
T2 sequence (P61088 whole entry): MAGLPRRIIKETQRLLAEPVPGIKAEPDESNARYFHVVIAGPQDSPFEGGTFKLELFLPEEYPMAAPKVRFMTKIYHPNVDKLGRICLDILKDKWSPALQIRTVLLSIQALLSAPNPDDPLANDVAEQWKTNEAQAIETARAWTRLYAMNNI

[6] = test system: INS1; test: INS-1E survival protection against cytokine death – cell-based, luminescence, retest, dose response (AID 449756); format: functional; details: Rattus norvegicus;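 note: cell death triggered by IL-1 beta plus TNF-alpha plus IFN-gamma mixture; protective hits raise ATP signal compared with cytokine alone wells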
[7] = test system: HEK293; test: membrane integrity loss in HEK cells – cell-based, fluorescence, cytotoxicity control for IDE activator project, dose response (AID 588440); format: functional; details: Homo sapiens;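 note: cytotoxicity by LDH release measuring loss of membrane integrity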
[8] = test system: HEK293; test: optical interference in Abeta FP readout, dose response, artefact control for IDE activator project, biochemical, fluorescence polarization (AID 588442); format: functional, cell-based; details: Homo sapiens
[9] = target: T3, Insulin-degrading enzyme (Homo sapiens, UniProt P14735); test: recombinant IDE activation, cell-free – biochemical, fluorescence polarization, counter-screen for IDE activator project, dose response (AID 588681)
T3 sequence (P14735 whole entry): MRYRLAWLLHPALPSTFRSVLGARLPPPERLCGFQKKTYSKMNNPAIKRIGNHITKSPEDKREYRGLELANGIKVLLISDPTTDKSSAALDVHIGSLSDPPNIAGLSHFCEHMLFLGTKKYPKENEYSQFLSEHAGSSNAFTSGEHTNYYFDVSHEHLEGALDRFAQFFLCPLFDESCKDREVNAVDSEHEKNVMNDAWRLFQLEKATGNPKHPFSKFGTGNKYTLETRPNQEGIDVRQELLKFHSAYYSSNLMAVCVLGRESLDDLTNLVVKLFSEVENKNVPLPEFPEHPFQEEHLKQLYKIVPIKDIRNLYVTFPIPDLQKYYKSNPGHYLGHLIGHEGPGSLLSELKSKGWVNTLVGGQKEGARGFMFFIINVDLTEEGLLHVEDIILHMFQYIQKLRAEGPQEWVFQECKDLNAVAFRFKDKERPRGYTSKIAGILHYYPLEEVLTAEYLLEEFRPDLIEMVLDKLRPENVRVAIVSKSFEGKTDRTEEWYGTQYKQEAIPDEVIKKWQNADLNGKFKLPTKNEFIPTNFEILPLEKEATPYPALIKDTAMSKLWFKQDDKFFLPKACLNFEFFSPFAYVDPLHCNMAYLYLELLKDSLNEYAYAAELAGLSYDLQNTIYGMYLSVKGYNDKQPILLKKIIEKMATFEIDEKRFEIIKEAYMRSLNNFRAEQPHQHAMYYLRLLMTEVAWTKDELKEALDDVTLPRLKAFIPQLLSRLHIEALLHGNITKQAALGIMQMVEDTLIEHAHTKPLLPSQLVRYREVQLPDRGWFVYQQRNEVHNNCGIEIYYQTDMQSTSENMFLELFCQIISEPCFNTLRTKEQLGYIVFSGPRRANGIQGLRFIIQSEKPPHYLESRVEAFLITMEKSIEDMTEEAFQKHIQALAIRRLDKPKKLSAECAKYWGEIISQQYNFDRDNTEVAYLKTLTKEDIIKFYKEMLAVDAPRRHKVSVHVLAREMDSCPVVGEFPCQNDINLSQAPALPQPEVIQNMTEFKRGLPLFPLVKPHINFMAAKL

[10] = target: T3, Insulin-degrading enzyme; test: cellular IDE activation of Abeta substrate cleavage – fluorescence polarization, HEK cells, dose response (AID 588439); format: functional, cell-based
[11] = target: T4, Streptokinase A (Streptococcus pyogenes serotype M1, UniProt P10520); test: viability-normalized secreted streptokinase activity reduction – plasminogen activation absorbance, OD405, dose response (AID 1914); format: functional, Streptococcus pyogenes M1 GAS;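 note: secreted streptokinase activity via plasminogen activation per viability signal from cell pellet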
T4 sequence (P10520 whole entry): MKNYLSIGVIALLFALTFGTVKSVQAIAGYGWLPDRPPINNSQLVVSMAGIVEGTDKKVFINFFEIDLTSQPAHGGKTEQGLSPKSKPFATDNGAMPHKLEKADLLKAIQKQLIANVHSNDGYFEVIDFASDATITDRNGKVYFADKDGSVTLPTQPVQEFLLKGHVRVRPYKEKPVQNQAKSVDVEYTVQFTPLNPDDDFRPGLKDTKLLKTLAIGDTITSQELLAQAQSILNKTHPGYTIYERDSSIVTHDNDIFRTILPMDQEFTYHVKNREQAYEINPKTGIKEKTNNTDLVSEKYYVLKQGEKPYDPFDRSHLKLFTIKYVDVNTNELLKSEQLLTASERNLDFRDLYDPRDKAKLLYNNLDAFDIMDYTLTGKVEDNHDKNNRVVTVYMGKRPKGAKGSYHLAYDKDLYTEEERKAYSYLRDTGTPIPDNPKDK

[12] = test system: Streptococcus sp. 'group A'; test: Streptococcus pyogenes SK(-)GAS viability under kanamycin – luminescence, BacTiterGlo, confirmation, counter-screen for streptokinase expression inhibitor project, dose response (AID 1900); format: functional, organism-based
[13] = test system: Streptococcus; test: GAS UMAA2166 growth inhibition – luminescence, BacTiterGlo, counter-screen for streptokinase expression inhibitor project, dose response (AID 1915); format: functional, organism-based;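 note: potency for reduction of bacterial viability or growth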
[14] = target: T5, Histone-lysine N-methyltransferase NSD2 (Homo sapiens, UniProt O96028); format: biochemical
T5 sequence (O96028 whole entry): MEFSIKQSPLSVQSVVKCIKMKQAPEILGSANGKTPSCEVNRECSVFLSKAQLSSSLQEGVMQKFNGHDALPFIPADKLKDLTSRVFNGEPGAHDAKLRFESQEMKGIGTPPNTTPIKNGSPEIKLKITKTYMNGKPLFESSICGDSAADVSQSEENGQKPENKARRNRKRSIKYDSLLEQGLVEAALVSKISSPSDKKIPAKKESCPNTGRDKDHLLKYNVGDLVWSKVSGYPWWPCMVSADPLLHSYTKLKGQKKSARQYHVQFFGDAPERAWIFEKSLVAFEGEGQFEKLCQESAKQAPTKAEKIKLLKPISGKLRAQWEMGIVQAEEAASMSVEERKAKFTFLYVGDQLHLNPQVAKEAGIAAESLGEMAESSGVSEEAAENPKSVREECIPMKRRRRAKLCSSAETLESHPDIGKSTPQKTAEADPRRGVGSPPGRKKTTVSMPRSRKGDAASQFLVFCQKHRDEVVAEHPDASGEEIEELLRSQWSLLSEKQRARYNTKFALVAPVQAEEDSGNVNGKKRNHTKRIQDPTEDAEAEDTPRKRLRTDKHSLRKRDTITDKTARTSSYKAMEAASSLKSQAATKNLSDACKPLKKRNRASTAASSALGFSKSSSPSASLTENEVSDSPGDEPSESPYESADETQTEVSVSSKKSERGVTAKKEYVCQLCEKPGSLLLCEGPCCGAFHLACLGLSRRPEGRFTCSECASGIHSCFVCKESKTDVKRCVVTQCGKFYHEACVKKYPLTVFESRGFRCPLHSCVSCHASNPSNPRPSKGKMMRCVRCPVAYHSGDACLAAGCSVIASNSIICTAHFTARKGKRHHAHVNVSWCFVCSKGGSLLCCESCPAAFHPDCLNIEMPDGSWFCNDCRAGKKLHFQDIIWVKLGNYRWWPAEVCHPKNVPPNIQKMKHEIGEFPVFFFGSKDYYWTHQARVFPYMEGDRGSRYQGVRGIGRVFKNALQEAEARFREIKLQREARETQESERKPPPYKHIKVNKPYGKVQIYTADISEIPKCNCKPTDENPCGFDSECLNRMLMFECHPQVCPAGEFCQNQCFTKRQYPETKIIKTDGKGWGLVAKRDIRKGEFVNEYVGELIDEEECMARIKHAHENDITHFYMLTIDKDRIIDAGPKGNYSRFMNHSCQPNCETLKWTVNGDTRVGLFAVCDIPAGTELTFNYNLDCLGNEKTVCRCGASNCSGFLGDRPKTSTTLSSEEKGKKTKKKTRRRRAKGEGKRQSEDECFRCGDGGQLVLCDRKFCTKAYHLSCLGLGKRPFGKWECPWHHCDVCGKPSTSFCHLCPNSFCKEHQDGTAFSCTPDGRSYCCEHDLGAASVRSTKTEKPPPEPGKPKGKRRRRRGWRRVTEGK

[15] = target: T6, DNA repair and recombination protein RAD54-like (Homo sapiens, UniProt Q92698); test: RAD54 Holliday junction migration blockers – biochemical, fluorescence, cherry-picked samples, dose series, confirmation (AID 651657); format: functional
T6 sequence (Q92698 whole entry): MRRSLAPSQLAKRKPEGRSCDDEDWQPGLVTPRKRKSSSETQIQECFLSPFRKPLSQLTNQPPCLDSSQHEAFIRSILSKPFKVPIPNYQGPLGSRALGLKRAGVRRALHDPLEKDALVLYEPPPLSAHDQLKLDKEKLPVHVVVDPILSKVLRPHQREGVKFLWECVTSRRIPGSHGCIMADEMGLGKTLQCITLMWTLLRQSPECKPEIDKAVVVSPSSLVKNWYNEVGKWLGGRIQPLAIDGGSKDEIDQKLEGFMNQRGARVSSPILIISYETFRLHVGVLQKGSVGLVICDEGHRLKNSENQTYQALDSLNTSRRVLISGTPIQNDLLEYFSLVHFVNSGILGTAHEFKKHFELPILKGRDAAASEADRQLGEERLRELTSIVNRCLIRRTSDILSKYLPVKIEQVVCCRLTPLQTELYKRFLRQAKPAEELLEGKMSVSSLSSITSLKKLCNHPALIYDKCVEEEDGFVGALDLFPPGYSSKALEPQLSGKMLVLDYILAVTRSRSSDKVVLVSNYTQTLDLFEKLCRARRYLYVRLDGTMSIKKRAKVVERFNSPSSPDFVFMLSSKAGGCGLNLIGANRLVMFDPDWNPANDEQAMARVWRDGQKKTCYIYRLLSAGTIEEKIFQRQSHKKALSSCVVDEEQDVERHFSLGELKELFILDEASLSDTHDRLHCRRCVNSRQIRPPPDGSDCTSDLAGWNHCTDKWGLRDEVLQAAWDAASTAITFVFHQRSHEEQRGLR

[16] = test system: Vero; test: viability loss in Vero cells – cell-based, plate reader, cherry-pick samples, cytotoxicity control, dose response (AID 687020); format: functional; details: Chlorocebus sabaeus

Compound	IC50 [1]	IC50 [2]	IC50 [4]	IC50 [7]	EC50 [8]	EC50 [9]	EC50 [10]	other results
N/N=C(/Cc1nc2ccccc2[nH]1)c1ccc([N+](=O)[O-])cc1	3.17 µM (active)	83.3 µM (inactive)	6.69 µM (active)	–	–	–	–	IC50 [3]: 19 µM (active)
COC(=O)C1=C(C)N(Cc2ccccc2)C(NCc2cccc(C(F)(F)F)c2)=N[C@H]1c1cccc(C(F)(F)F)c1	–	–	–	13.6 µM (inactive)	> 54.7 µM (inactive)	> 54.7 µM (inactive)	> 6.08 µM (active)	IC50 [5]: > 20 µM (inactive); AC50 [6]: 5.53 µM (active)
NC(=O)c1ccc(NC(=O)COC(=O)c2c3c(nc4ccccc24)/C(=C\c2ccc4c(c2)OCO4)CCC3)cc1	–	–	–	> 89.2 µM (inactive)	> 54.7 µM (inactive)	> 54.7 µM (inactive)	> 54.7 µM (inactive)	EC50 [11]: > 150 µM (not active); EC50 [12]: 13.6 µM (active); EC50 [13]: 140 µM (active)
O=C(c1ccccc1)N1CCN(c2ccc([N+](=O)[O-])c(NCc3cccnc3)c2)CC1	–	–	–	> 89.2 µM (inactive)	> 54.7 µM (inactive)	> 54.7 µM (inactive)	> 54.7 µM (inactive)	–
Nc1ccc(C2(c3ccc(N)cc3)CN3CCC2CC3)cc1	–	–	–	–	–	–	–	AC50 [14]: 4.41 µM (active); AC50 [15]: 25.8 µM (active)
COc1ccc(C(C(=O)NC2CCCC2)N2CCc3ccccc32)cc1 (centres undefined)	–	–	–	–	–	–	–	AC50 [16]: 29.5 µM (active)
O=C(COC(=O)CCCOc1ccc(Cl)cc1Cl)Nc1cccc(Cl)c1	16.5 µM (inactive)	83.3 µM (inactive)	9.07 µM (active)	–	–	–	–	–
CCc1cc(Cn2nc(C(=O)O)cc2-c2ccccc2)on1	–	–	–	> 89.3 µM (inactive)	> 54.7 µM (inactive)	> 54.7 µM (inactive)	> 54.7 µM (inactive)	–
O=C(Nc1ccccc1)Nc1nnc(COc2ccccc2F)s1	35.7 µM (inactive)	71 µM (inactive)	42.9 µM (inactive)	–	–	–	–	–
